Test results as given in patent US20110009368A1, “SOLID FORMS OF TENOFOVIR DISOPROXIL” (ULTIMORPHIX TECHNOLOGIES B.V., priority 2007, published 2011).
Entries after “also recorded” stand apart in the source; their conditions may differ. Structures can show the parent of a compound that is named as a salt.

How the values were obtained:
[1] = Stress testing in climatic chamber, physical and chemical stability by XRPD and HPLC; format: physicochemical; settings: 40° C. and 75% relative humidity
Experimental: A small quantity (of about 10 milligrams) of TDSU ULT-1 was placed in a Binder climatic chamber KBR115 series for stress testing under 40° C. and 75% relative humidity (RH). The material was checked for physical and chemical stability by XRPD and HPLC respectively in intervals of 2 and 4 weeks. In both cases the material was stable, i.e. no structural change or chemical degradation took place over the tested period.

[2] = Intrinsic dissolution rate measurement (micro-dissolution, UV); format: physicochemical; settings: for Dissolution rate: 20 ml, 100 rpm
Experimental: 20 ml of high pure water was placed in 25 ml vial in the micro-dissolution thermal block by using a 20 ml volumetric pipette. A large cross stirrer was placed to the vial and the solution was stirred at a speed of 100 rpm. The 5 mm path length tip was placed from the top along with the probe connected with DAD (Diode Array Detector) analyzer. The 100% transmittance and dark spectra was collected by using high pure water. In the next step a tablet of 10 mg of Tenofovir disoproxil succinate (TDSU ULT-1) was pressed on tablet machine and placed along with the stirrer in a 25 ml vial in the micro-dissolution thermal block. The probe was placed along with the 5 mm path length tip and 20 ml of high pure water was added to the sample. The solution was stirred with a speed of 100 rpm and absorbance or the optical density was determined with respect to time by UV spectrometer. The intrinsic dissolution rate was determined by plotting concentration versus time and calculating the slope of the curve.
The same experiments were performed in a similar manner in buffered media of pH values of […]. pH buffers for dissolution pH 1.5: USP SGF without pepsin (0.05M sodium chloride adjusted to pH 1.5 with HCl) pH 3.0: 0.05 sodium di-hydrogen phosphate buffer adjusted to […] with NaOH pH 4.5: 0.05M sodium di-hydrogen phosphate buffer adjusted to pH 4.5 with NaOH pH 6.8: USP SIF without pancreatin (0.05M sodium di-hydrogen phosphate buffer adjusted to pH 6.8 with NaOH) pH 7.4: 0.05M sodium di-hydrogen phosphate adjusted to pH 7.4 with NaOH Results of intrinsic dissolution rate measurements

[3] = as above; format: physicochemical; settings: 20 ml, 100 rpm
[4] = Dynamic Vapour Sorption (DVS) moisture sorption; format: physicochemical; settings: for total uptake of water vapours (max water adsorption, hygroscopicity): relative humidity 0% to 95% in steps of 5%, 1 h per step
Experimental: Moisture sorption isotherms were measured using a DVS-1 system of Surface Measurement Systems (London, UK). Differences in moisture uptake of a solid material indicate differences in the relative stabilities of the various solid forms for increasing relative humidity. The experiment was carried out at a constant temperature of 25° C.
A sample of about 15 mg of TDSU ULT-1 was spread in the DVS pan. The sample was dried at 0% RH for 7 h. Subsequently the relative humidity of the chamber was increased in steps of 5% units from 0% to 95% in order to monitor the sorption of water vapours. The samples remained in each of the steps for 1 h. Following, desorption was monitored by decreasing the relative humidity to 0% in steps of 5% units and remaining at each step for 1 h. The graph of sorption-desorption cycle is shown below. […] In a similar DVS experiment using the starting material as purchased, the total vapour intake was about 4%, which is undesirable in formulation and requires additional measures.

[5] = known crystalline form; compared with industry limits; cited from earlier work

| Compound | physical and chemical stability (XRPD and HPLC) ([1]; 2 weeks) | physical and chemical stability (XRPD and HPLC) ([1]; 4 weeks) | Dissolution rate ([2]; Buffer pH 1.5, 10 mg tablet) | Dissolution rate ([2]; Buffer pH 4.5, 10 mg tablet) | dissolving faster compared to TDF 1:1 ([2]; in water and in all media with pH values ranging from 1.5 to 7.4) | Dissolution rate ([2]; water, 10 mg tablet) | Dissolution rate ([3]; Buffer pH 3.0, 10 mg tablet) | Dissolution rate ([3]; Buffer pH 6.8, 10 mg tablet) | Dissolution rate ([3]; Buffer pH 7.4, 10 mg tablet) | hygroscopicity (conclusion from DVS data) ([4]; DVS, 25° C., 0% to 95% RH) | total uptake of water vapours (max water adsorption, hygroscopicity) ([4]; DVS, 25° C.) | structure by XRPD at the end of the DVS experiment ([4]; after sorption-desorption cycle) | Hygroscopicity [5] |
| --- | --- | --- | --- | --- | --- | --- | --- | --- | --- | --- | --- | --- | --- |
| Tenofovir Disoproxil succinate [TDSU ULT-1] | stable | stable | 10.00 mgmin−1 cm−2 | 3.55 mgmin−1 cm−2 | up to 3 times | 1.42 mgmin−1 cm−2 | 1.78 mgmin−1 cm−2 | 1.88 mgmin−1 cm−2 | 1.09 mgmin−1 cm−2 | no hygroscopicity; also recorded: not hygroscopic | about 0.3% | no any changes in the structure | – |
| CC(C)OC(=O)OCOP(=O)(CO[C@H](C)Cn1cnc2c(N)ncnc21)OCOC(=O)OC(C)C [TDF 1:1, 9-[(R)-2-[[bis[[(isopropoxycarbonyl)oxy]methoxy]phosphinyl]methoxy]propyl]adenine fumarate (1:1), reference compound] | – | – | 3.29 mgmin−1 cm−2 | 0.99 mgmin−1 cm−2 | – | 1.12 mgmin−1 cm−2 | 1.36 mgmin−1 cm−2 | 0.98 mgmin−1 cm−2 | – | – | about 4% | – | > 4% |
